# Laboratory results published in PMC12567349, “Design and Optimization of Spiro-Isatin-Thiazolidinone Hybrids with Promising Anticancer Activity” (Pharmaceuticals, 2025).
# Experiments:
# HCT116 cells = assay: MTT assay, 72 h, HCT116; format: cell-based; conditions: Homo sapiens, HCT-116, mean ± SD
# Description: (§1) The cytotoxic potential of the synthesized compounds was investigated using the MTT assay after 72 h incubation with a panel of human and murine cancer cell lines, including colorectal carcinoma (HCT116), estrogen receptor-positive breast adenocarcinoma (MCF-7), triple-negative breast adenocarcinoma (MDA-MB-231), epidermoid carcinoma (KB3-1), myeloid leukemia (K562), and glioblastoma (U373), and mouse breast carcinoma (4T1) cells. To assess the selectivity of the compounds, pseudo-normal cell lines—human keratinocytes (HaCaTs) and mouse fibroblasts (NIH3T3s)—were also tested under the same conditions.
# (§2) Human breast adenocarcinoma cells of MCF-7 and MDA-MB-231 lines, human glioblastoma cells of U373 line, human chronic myelogenous leukemia cells of K562 line, human colorectal carcinoma cells of HCT116 line, and human epidermoid carcinoma cells of KB3-1 line were kindly donated by a Collection of the Institute for Cancer Research at Vienna Medical University (Vienna, Austria). Human keratinocytes of HaCaT line, murine breast carcinoma cells of 4T1 line, and murine fibroblasts of the NIH3T3 line were obtained from the Cell Collection of the R.E. Kavetsky Institute of Experimental Pathology, Oncology and Radiobiology of the National Academy of Sciences of Ukraine (Kyiv, Ukraine). MCF-7, MDA-MB-231, U373, K562, HaCaT, and NIH3T3 cells were cultured in DMEM medium (Sigma-Aldrich, Burlington, MA, USA) supplemented with 2 mM L-glutamine, 4500 mg/L glucose, and 1 mM sodium pyruvate. HCT116 and KB3-1 cells were maintained in RPMI-1640 medium supplemented with 2 mM L-glutamine (Sigma-Aldrich, USA). Both media were supplemented with 10% fetal bovine serum (Sigma-Aldrich, USA). All cell lines were incubated at 37 °C in a humidified atmosphere containing 5% CO2.
# (§3) The substrate cells were seeded at a density of 5000 cells per 100 µL, while suspension K562 cells were seeded at 15,000 cells per 100 µL in 96-well plates and incubated overnight. Doxorubicin (Dox, Sigma-Aldrich, USA) was used as a reference drug. Studied substances were then added in 100 µL of culture medium, and the cells were further incubated for 72 h. Subsequently, 20 µL of MTT solution (5 mg/mL, Sigma-Aldrich, USA) was added to each well and incubated for 2–4 h. Formazan crystals were then solubilized by adding dimethyl sulfoxide (Sigma-Aldrich, USA). Absorbance was measured using a BioTek ELx800 Absorbance Reader (BioTek Instruments, Inc., Winooski, VT, USA). The results were analyzed and illustrated using GraphPad Prism (version 8.0.1; GraphPad Software, San Diego, CA, USA) and presented as a mean (M) ± standard deviation (SD). The IC50 values of the compounds were determined using nonlinear regression analysis in GraphPad Prism 10.4.2 [40].
# KB3-1 cells = assay: MTT assay, 72 h, KB3-1; format: cell-based; conditions: Homo sapiens, KB 3-1, mean ± SD
# Description: as §1, §2, §3
# MCF-7 cells = assay: MTT assay, 72 h, MCF-7; format: cell-based; conditions: Homo sapiens, MCF7, mean ± SD
# Description: as §1, §2
# as §3, with “Doxorubicin (Dox, Sigma-Aldrich, USA) was used as a reference drug.” left out
# HaCaT cells = assay: MTT assay, 72 h, HaCaT (pseudo-normal); format: cell-based; conditions: Homo sapiens, mean ± SD
# Description: as §1, §2, §3
# NIH3T3 cells = assay: MTT assay, 72 h, NIH3T3 (pseudo-normal); format: cell-based; conditions: Mus musculus, mean ± SD
# Description: as §1, §2, §3
# MDA-MB-231 cells = assay: MTT assay, 72 h, MDA-MB-231; format: cell-based; conditions: Homo sapiens, mean ± SD
# Description: as §1, §2, §3
# K562 cells = assay: MTT assay, 72 h, K562; format: cell-based; conditions: Homo sapiens, mean ± SD
# Description: as §1, §2, §3
# cancer cell lines = assay: MTT assay, panel of cancer cell lines; format: cell-based; conditions: 72 h, summary over the cancer cell panel, read-out: IC50 for most cancer lines
# Description: as §1, §3
# 4T1 cells = assay: MTT assay, 72 h, 4T1; format: cell-based; conditions: Mus musculus, mean ± SD
# Description: as §1, §2, §3
# U373 cells = assay: MTT assay, 72 h, U373; format: cell-based; conditions: Homo sapiens, U373 MG, mean ± SD
# Description: as §1, §2, §3
# [1] = test system: p53 expression in A549 lung cancer cells; set-up: method as in PMID 38920636; conditions: A549 lung cancer cells ref 34; cited from earlier work
# [2] = test system: p53 expression in normal BJ cells; set-up: method as in PMID 38920636; conditions: normal BJ cells ref 34; cited from earlier work
# PPARγ = test system: PPARγ; set-up: method as in PMID 38920636; conditions: cited from earlier work
Structure (SMILES),IC50 (HCT116 cells) [µM],IC50 (KB3-1 cells) [µM],IC50 (MCF-7 cells) [µM],IC50 (HaCaT cells) [µM],IC50 (NIH3T3 cells) [µM],IC50 (MDA-MB-231 cells) [µM],IC50 (K562 cells) [µM],IC50 (cancer cell lines) [µM],IC50 (4T1 cells) [µM],IC50 (U373 cells) [µM],p53 expression [1],p53 expression [2],PPARγ modulation (PPARγ)
"COc1ccc(N2C(=O)/C(=C/c3ccc(N4CCOCC4)cc3)SC23C(=O)Nc2ccc(Cl)cc23)cc1 (stereo not drawn) [Compound 8, (Z)-5-Chloro-3′-(4-methoxyphenyl)-5′-(4-morpholinobenzylidene)spiro[indoline-3,2′-thiazolidine]-2,4′-dione]",> 100,75.9 ± 4.21,> 100,> 100,> 100,> 100,> 100,> 100,> 100,> 100,–,–,–
"CCOc1ccc(/C=C2\SC3(C(=O)Nc4ccc(Br)cc43)N(c3ccc(Br)cc3)C2=O)cc1 (stereo not drawn) [Compound 14, (Z)-5-Bromo-3′-(4-bromophenyl)-5′-(4-ethoxybenzylidene)spiro[indoline-3,2′-thiazolidine]-2,4′-dione]",> 100,19.6 ± 0.23,> 100,> 100,> 100,60.2 ± 0.62,> 100,> 100,> 100,89.52 ± 0.81,–,–,–
"CC(C)(C)c1ccc(/C=C2\SC3(C(=O)Nc4ccc(Cl)cc43)N(Cc3ccccc3)C2=O)cc1 (stereo not drawn) [Compound 17, (Z)-3′-Benzyl-5′-(4-(tert-butyl)benzylidene)-5-chlorospiro[indoline-3,2′-thiazolidine]-2,4′-dione]",8.24 ± 0.26,5.85 ± 0.42,6.64 ± 0.39,10.6 ± 0.21,91 ± 1.34,13.5 ± 2.21,67.9 ± 0.81,–,66 ± 4.48,32.26 ± 0.25,–,–,–
"CC(C)(C)c1ccc(/C=C2\SC3(C(=O)Nc4ccc(F)cc43)N(Cc3ccccc3)C2=O)cc1 (stereo not drawn) [Compound 18, (Z)-3′-Benzyl-5′-(4-(tert-butyl)benzylidene)-5-fluorospiro[indoline-3,2′-thiazolidine]-2,4′-dione]",8.37 ± 0.51,7.92 ± 0.65,6.99 ± 0.16,> 100,98.39 ± 0.66,6.67 ± 0.15,37.4 ± 0.49,6.67 to 8.37,46.7 ± 1.19,29.8 ± 0.35,–,–,–
"CCOc1ccc(/C=C2\SC3(C(=O)Nc4ccc(F)cc43)N(Cc3ccccc3)C2=O)cc1 (stereo not drawn) [Compound 19, (Z)-3′-Benzyl-5′-(4-ethoxybenzylidene)-5-fluorospiro[indoline-3,2′-thiazolidine]-2,4′-dione]",62.7 ± 0.76,35 ± 0.48,63.9 ± 0.59,96.79 ± 0.78,94.35 ± 0.87,59.3 ± 2.27,> 100,–,60.5 ± 1.84,54.89 ± 0.33,–,–,–
CC(C)c1ccc(/C=C2\SC3(C(=O)Nc4ccccc43)N(c3ccc(Cl)cc3)C2=O)cc1 (stereo not drawn) [Les-3467],–,–,–,–,–,–,–,–,–,–,decreasing it,increasing its levels,acts as a PPARγ modulator
